Assays:
[1] = system: thermostable luciferase; assay: Stabilization of luminescent signal using luciferase inhibitors; details: 100 micromolar inhibitor; CYP1A1 with Luciferin chloroethyl ether; read for 1 hour
Procedure: FIG. 17. Stabilization of luminescent signals using luciferase inhibitors. […] Luminescence was read immediately and at subsequent 5 minute intervals for 1 hour.
(AMBT) or 2-(4-aminophenyl)-6-methylbenzothiazole (APMBT), were evaluated to determine their effect on stabilizing a luminescent signal.
Luminescence was read immediately and at subsequent 5 minute intervals for 1 hour.

[2] = target: T1, CYP1A1 (Homo sapiens, UniProt P04798); assay: Two-step luminescent CYP450 inhibition assay; format: biochemical; design: purchased GenTest (Woburn, Mass.); host or cells: Sf9 insect cells; details: substrate Luc CEE; 50 microliter reaction, 1 picomole CYP450; read-out: IC50 of known CYP450 substrate against CYP1A1/Luc CEE
T1 sequence (P04798 1-512): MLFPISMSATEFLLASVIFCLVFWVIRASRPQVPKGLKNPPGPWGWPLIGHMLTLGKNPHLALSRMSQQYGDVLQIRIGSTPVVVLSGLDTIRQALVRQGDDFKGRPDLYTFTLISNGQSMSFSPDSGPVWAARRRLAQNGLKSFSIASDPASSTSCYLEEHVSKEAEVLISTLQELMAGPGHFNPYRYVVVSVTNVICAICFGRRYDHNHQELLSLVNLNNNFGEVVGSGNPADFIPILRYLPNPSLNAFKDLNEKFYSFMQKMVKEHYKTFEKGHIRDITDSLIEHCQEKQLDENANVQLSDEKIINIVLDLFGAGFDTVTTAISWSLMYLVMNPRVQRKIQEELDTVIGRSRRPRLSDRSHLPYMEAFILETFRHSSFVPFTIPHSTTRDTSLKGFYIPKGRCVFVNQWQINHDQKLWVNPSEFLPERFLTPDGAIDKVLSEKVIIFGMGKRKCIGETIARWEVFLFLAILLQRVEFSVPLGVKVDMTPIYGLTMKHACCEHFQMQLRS
Procedure: After an initial incubation period at 37° C.
Luciferin derivatives as substrates for luminescent CYP450 assays would be useful as probes for detecting other CYP450 substrates. Because two distinct substrates for the same CYP450 isoform will likely compete for the active site, it is possible to characterize known substrates and to identify novel substrates by observing their capacity to inhibit the luminescent reactions with luciferin derivatives. […] The drugs inhibited the reactions in a dose-dependent manner, thus verifying the expectation that CYP450 substrates can be detected by these luminescent assays (see table below). IC50s were calculated by non-linear regression analysis with the program GraphPad PRISM™ (San Diego, Calif.). The reactions were performed as described in Example 2 except the first step (CYP450 reaction) was in a 50 microliter reaction volume with 1 picomole of CYP450. In the second step a 50 microliter luciferase reaction was added to give final concentrations of 50 micrograms/mL recombinant, mutant of firefly luciferase from Photuris pennsylvanica from Promega (17), 200 micromolar ATP, 0.1% tergitol (v/v), 4.0 mM MgSO4 and 100 mM Tricine pH 8.4. FIGS. 11(a)-(c) illustrate the actual inhibition curves.

[3] = target: T2, CYP2E1 (Homo sapiens, UniProt P05181); assay: Two-step CYP450/Renilla reaction, coelenterazine derivative evaluation; format: biochemical; details: 60 min at 37° C.; 3 micromolar substrate
T2 construct: purchased GenTest (Woburn, Mass.); host or cells: Sf9 insect cells, baculovirus
T2 sequence (P05181 whole entry): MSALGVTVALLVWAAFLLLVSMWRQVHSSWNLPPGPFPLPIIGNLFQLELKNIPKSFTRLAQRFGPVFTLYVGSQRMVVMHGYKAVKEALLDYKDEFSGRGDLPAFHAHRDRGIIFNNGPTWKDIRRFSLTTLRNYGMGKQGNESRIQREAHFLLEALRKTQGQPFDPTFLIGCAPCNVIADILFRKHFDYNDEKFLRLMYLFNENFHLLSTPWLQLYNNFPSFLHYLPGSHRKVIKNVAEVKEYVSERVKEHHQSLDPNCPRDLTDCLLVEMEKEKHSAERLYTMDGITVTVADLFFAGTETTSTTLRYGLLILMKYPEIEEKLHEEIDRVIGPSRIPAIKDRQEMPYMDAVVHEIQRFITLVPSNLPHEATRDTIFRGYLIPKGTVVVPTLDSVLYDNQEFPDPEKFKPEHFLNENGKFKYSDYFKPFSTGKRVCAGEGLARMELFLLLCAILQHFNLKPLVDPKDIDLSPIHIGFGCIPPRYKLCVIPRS
Procedure: (§1) In this Example, P450 activity was determined using coelenterazine and coelenterazine derivatives, methoxy-coelenterazine HH and coelenterazine HH, in a two-step reaction system. In these assays, P450 acts on the coelenterazine or coelenterazine derivatives in one of two ways. […] An example of this type of coelenterazine derivative is methoxy-coelenterazine HH. […] In both types of assay it is possible to detect P450 activity either directly by a change in chemiluminescence or indirectly by a change in bioluminescence from a Renilla-type luciferase.
(§2) […]; 625 mM KCl; 0.125 mM EDTA pH 8.0; 0.25% Triton X-100; 0.125% Mazu; 1.25% Glycerol; 0.25 mg/mL gelatin to the P450 reactions. Renilla luciferase (1.2 ng/mL) (purchased from Chemicon) was added for detection of bioluminescence of P450 altered coelenterazine or coelenterazine derivatives.

[4] = target: T3, CYP1A2 (Homo sapiens, UniProt P05177); assay: as above; format: biochemical; details: 60 min at 37° C.
T3 sequence (P05177 1-516): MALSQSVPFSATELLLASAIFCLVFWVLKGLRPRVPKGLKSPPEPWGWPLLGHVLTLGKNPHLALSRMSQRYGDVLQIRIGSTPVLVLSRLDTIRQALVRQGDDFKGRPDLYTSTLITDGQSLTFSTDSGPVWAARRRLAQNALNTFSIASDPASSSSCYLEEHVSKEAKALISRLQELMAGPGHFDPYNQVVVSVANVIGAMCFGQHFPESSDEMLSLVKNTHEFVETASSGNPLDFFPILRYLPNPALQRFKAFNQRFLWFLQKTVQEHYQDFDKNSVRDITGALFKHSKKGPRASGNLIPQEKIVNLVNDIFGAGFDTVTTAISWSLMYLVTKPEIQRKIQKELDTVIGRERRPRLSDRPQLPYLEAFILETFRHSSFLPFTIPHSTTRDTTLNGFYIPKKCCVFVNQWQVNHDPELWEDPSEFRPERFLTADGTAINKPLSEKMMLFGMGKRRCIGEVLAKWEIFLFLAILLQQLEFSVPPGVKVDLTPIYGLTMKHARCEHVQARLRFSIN
Procedure: as §1, §2

[5] = target: T4, CYP2C19 (Homo sapiens, UniProt P33261); assay: as above; format: biochemical; details: 60 min at 37° C.; 10 micromolar substrate
T4 construct: purchased GenTest (Woburn, Mass.); host or cells: Sf9 insect cells, baculovirus
T4 sequence (P33261 whole entry): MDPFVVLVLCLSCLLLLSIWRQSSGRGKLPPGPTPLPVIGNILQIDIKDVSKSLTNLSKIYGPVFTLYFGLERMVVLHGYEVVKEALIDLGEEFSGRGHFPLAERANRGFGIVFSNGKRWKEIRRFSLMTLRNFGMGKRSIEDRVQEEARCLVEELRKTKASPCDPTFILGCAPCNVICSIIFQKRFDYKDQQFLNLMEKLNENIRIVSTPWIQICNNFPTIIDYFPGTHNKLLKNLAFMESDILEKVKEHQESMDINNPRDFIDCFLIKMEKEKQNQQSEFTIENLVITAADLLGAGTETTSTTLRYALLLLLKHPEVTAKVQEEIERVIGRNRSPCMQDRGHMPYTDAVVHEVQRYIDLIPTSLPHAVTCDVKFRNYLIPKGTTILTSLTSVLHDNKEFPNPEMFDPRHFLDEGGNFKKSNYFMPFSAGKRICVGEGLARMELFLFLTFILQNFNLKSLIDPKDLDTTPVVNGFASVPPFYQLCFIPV
Procedure: as §1, §2

[6] = target: T5, CYP2B6 (Homo sapiens, UniProt P20813); assay: as above; format: biochemical; details: 60 min at 37° C.; 10 micromolar substrate
T5 construct: purchased GenTest (Woburn, Mass.); host or cells: Sf9 insect cells, baculovirus
T5 sequence (P20813 1-491): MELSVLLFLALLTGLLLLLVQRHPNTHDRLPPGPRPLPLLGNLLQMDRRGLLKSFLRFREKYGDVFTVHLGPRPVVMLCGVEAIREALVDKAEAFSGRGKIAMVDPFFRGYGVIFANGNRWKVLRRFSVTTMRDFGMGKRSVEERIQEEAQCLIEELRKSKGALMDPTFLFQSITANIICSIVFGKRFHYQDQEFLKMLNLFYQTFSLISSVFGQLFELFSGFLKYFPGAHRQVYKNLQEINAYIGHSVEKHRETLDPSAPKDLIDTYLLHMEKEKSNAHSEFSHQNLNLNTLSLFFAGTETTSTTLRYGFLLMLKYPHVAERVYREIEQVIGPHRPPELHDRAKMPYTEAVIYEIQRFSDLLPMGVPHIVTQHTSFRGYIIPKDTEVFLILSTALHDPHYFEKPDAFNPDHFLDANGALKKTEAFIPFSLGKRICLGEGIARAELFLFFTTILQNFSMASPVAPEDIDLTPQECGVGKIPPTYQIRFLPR
Procedure: as §1, §2

[7] = target: T1, CYP1A1; assay: as above; format: biochemical; design: purchased GenTest (Woburn, Mass.); host or cells: baculovirus-infected insect cells; details: 60 min at 37° C.; 10 micromolar substrate
Procedure: as §1, §2

## Cc1ccc2nc(-c3ccc(N)cc3)sc2c1 [APMBT, 2-(4-aminophenyl)-6-methylbenzothiazole]
[1]
  Effect on luminescent signal in a luminescent CYP450 assay: stabilizes the luminescent signal

## CCOc1ccc(NC(C)=O)cc1 [Phenacetin, phenacetin]
[2]
  IC50: 21 µM

## O=c1c(Cc2ccccc2)nc2c(Cc3ccccc3)[nH]c(-c3ccccc3)cn1-2 [coelenterazine HH, 2,8-Dibenzyl-6-phenyl-7H-imidazo[1,2-a]pyrazin-3-one]
[3]
  Change in chemiluminescence and bioluminescence after incubation with CYP2E1: significant reduction
[4]; 3 micromolar substrate
  Change in chemiluminescence and bioluminescence after incubation with CYP1A2: significant reduction

## COc1c(Cc2ccccc2)nc2c(Cc3ccccc3)nc(-c3ccccc3)cn12 [methyl-coelenterazine HH, 2,8-Dibenzyl-3-methoxy-6-phenyl-imidazo[1,2-a]pyrazine]
[5]
  Increase in chemiluminescence and bioluminescence with CYP2C19 (+P450 RLU/-P450 RLU): 2-5 ×
[6]
  Increase in chemiluminescence and bioluminescence with CYP2B6 (+P450 RLU/-P450 RLU): 2-5 ×
[4]; 10 micromolar substrate
  Increase in chemiluminescence and bioluminescence with CYP1A2 (+P450 RLU/-P450 RLU): 2-5 ×
[7]
  Change in chemiluminescence and bioluminescence after incubation with CYP1A1: large increase

Reference: patent US8106052B2, “Luminescence-based methods and probes for measuring cytochrome P450 activity” (Promega Corporation, priority 2002, dated 2012)
